Measured values as given in ChEMBL document CHEMBL1201862, “PubChem BioAssay data set” (2004).
Calls of active or inactive are those of the source. For most assays here, no stated cut-off is given here; in the data, actives have a measured EC50 and inactives only a lower limit.

Tests used:
[1] = target: T1, Heat shock factor protein 1 (Mus musculus, UniProt P38532); assay: HSF1 potentiators in luciferase reporter cells, confirmation, cell-based, NIH3T3, luminescence, dose retest (AID 435004); assay type: functional;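 further: stress induced by proteasome inhibitor MG132 added 30 min after compound; luciferase reporter driven by HSF1 response element in NIH3T3 cells; actives raise luminescence as potentiators of the MG132 stress response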
T1 sequence (P38532 whole entry): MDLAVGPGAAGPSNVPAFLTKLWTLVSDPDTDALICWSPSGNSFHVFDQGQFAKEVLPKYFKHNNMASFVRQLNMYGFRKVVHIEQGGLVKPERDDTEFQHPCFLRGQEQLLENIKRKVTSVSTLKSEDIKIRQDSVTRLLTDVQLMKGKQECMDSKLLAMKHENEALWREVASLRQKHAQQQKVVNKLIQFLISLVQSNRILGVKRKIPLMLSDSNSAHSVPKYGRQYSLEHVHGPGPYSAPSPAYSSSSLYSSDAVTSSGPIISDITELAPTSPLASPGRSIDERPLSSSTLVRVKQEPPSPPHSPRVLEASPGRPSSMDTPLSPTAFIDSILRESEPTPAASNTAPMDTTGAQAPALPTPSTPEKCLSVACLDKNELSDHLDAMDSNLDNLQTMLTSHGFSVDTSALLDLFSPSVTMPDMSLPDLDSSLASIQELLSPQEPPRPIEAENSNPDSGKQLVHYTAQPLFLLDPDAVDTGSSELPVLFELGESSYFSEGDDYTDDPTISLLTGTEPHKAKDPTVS

[2] = target: Genome polyprotein (dengue virus type 2, UniProt P29990); assay: Dengue-2 NS5 methyltransferase inhibitors, primary screen, biochemical, confirmation dose response (AID 588689); assay type: functional
[3] = target: T2, Zinc finger protein mex-5 (Caenorhabditis elegans, UniProt Q9XUB2); assay: MEX-5/TCR-2 RNA interaction inhibitors, dose response, biochemical, C. elegans, fluorescence polarization (AID 1960)
T2 sequence (Q9XUB2 whole entry): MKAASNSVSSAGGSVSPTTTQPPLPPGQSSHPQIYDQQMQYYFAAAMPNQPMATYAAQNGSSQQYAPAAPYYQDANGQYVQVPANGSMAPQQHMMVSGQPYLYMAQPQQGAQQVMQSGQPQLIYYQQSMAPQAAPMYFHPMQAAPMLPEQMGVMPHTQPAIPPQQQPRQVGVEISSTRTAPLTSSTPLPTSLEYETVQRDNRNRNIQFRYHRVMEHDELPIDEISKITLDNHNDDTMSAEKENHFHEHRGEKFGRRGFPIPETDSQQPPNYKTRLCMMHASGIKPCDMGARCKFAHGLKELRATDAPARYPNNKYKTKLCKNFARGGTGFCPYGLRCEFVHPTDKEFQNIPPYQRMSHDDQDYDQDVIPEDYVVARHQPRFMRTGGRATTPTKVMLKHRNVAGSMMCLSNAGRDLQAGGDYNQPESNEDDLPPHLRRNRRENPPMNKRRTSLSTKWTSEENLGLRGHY

[4] = target: T3, RNA-binding protein pos-1 (Caenorhabditis elegans, UniProt G5EF15); assay: inhibitors of POS-1/mex-3 RNA binding, dose response, biochemical, fluorescence polarization (AID 1964);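 further: purified POS-1 fused to maltose binding protein made in E. coli; potency of compounds blocking POS-1 binding to fluorescent RNA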
T3 sequence (G5EF15 whole entry): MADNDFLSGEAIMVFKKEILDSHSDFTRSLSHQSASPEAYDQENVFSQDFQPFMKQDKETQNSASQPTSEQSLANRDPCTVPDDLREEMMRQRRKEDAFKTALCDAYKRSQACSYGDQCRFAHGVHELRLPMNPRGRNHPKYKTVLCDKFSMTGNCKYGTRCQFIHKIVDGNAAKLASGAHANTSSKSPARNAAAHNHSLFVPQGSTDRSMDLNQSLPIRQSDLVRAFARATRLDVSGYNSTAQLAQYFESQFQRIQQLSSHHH

[5] = NIH-3T3 fibroblast cytotoxicity, dose response, cytotoxicity control, cell-based, fluorescence, Alamar Blue, secondary assay (AID 2327); assay type: functional;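 further: NIH-3T3 mouse fibroblasts cultured with fluconazole at 8 µg/mL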
[6] = target: T4, Microphthalmia-associated transcription factor (Homo sapiens, UniProt O75030); assay: TRPM1 promoter luciferase signal decrease, dose response, MITF inhibitor project, cell-based, SK-MEL-5, cherry-picked, set 3 (AID 493073); assay type: functional
T4 sequence (O75030 whole entry): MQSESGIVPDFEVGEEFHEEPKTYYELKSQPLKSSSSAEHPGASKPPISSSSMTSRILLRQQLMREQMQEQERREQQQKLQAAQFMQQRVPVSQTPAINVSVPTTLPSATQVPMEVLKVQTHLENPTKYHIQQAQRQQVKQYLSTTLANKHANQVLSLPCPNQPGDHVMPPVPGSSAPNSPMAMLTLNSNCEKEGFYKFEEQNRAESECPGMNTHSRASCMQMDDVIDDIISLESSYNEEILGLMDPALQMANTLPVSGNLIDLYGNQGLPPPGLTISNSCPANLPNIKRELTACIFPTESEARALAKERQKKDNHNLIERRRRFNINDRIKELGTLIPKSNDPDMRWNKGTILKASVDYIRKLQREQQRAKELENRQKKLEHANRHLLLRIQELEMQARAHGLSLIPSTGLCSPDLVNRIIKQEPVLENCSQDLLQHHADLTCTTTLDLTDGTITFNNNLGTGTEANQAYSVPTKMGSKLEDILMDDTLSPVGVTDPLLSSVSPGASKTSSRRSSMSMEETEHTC

[7] = cells; assay type: functional, cell-based
[8] = cells; assay type: functional, cell-based; remark: listed apart in the source
[9] = target: T5, Protein skinhead-1 (Caenorhabditis elegans, UniProt P34707); assay type: functional
T5 sequence (P34707 whole entry): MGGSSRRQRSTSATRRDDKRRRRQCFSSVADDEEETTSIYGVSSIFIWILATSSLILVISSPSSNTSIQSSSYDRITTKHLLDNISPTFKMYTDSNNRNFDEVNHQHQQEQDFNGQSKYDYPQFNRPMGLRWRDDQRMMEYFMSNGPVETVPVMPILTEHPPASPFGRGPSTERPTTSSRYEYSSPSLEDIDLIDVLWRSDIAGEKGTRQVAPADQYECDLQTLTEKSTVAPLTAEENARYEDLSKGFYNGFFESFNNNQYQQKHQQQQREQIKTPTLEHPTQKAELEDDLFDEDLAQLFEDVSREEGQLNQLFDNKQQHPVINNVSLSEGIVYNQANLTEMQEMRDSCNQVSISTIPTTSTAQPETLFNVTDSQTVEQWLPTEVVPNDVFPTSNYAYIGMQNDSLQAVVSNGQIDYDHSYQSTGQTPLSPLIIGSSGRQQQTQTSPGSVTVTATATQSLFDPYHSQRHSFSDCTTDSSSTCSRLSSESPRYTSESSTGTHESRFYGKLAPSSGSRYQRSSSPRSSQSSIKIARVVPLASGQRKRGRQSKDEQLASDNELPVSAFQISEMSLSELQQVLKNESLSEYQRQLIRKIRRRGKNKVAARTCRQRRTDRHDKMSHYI

[10] = target: T1, Heat shock factor protein 1; assay: inhibition of MG132-induced HSE-luciferase signal, confirmation, cell-based, NIH3T3, luminescence, dose retest (AID 2382); assay type: functional;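 further: NIH3T3 fibroblasts with HSF1-driven luciferase reporter stressed by proteasome inhibitor MG132; luminescence from HSF1-driven luciferase expression after 8 hours of MG132 stress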
[11] = control 3'UTR Renilla luciferase suppression, dose response, counter-screen for Shn3 inhibitor project, cell-based, Clone20-Shn3RL, cherry-picked (AID 624133); assay type: functional
[12] = inhibitors of firefly luciferase expression or activity, dose response, H4 neuroglioma cells, luminescence (AID 1990); assay type: functional, cell-based
[13] = inhibitors of SNCA 5'UTR-driven reporter translation, confirmation, H4 neuroglioma cells, luminescence (AID 1988); assay type: functional, cell-based
[14] = Luminescence Cell-Based Dose Response HTS to Identify Inhibitors of 5'UTR Stem-Loop Driven Prion Protein mRNA Translation in H4 Neuroglioblastoma Cells. [Related pubchem assays: 1827 (Project Summary), 1813 (Primary HTS)]; assay type: functional
[15] = system: INS1; assay: beta cell apoptosis inhibitors, cytokine rescue, dose response, luminescence, retest (AID 449756); assay type: functional, cell-based; conditions: Rattus norvegicus;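 further: cell death triggered by IL-1 beta plus TNF-alpha plus IFN-gamma mixture; protective hits raise ATP signal compared with cytokine alone wells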
[16] = target: Cytochrome P450 2D6 (Homo sapiens, UniProt P10635);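 further: CYP2D6 member of a cytochrome P450 panel assay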
Sequence of Cytochrome P450 2D6 (P10635 whole entry): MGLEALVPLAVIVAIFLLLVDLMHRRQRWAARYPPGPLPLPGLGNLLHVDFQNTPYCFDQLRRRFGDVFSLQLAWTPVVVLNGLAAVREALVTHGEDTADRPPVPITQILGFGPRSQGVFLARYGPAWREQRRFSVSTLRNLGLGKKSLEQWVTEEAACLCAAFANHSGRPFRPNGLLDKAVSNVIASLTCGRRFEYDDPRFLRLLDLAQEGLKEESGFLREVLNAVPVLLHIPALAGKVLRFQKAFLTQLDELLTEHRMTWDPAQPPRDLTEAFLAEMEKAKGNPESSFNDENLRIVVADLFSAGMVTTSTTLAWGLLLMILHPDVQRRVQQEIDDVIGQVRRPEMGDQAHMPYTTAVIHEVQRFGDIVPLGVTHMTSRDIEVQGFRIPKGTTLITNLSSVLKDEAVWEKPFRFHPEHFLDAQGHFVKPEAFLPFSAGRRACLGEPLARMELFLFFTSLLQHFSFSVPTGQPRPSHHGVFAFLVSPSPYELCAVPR

Sequence of Genome polyprotein (P29990 2492-3391 limits assumed): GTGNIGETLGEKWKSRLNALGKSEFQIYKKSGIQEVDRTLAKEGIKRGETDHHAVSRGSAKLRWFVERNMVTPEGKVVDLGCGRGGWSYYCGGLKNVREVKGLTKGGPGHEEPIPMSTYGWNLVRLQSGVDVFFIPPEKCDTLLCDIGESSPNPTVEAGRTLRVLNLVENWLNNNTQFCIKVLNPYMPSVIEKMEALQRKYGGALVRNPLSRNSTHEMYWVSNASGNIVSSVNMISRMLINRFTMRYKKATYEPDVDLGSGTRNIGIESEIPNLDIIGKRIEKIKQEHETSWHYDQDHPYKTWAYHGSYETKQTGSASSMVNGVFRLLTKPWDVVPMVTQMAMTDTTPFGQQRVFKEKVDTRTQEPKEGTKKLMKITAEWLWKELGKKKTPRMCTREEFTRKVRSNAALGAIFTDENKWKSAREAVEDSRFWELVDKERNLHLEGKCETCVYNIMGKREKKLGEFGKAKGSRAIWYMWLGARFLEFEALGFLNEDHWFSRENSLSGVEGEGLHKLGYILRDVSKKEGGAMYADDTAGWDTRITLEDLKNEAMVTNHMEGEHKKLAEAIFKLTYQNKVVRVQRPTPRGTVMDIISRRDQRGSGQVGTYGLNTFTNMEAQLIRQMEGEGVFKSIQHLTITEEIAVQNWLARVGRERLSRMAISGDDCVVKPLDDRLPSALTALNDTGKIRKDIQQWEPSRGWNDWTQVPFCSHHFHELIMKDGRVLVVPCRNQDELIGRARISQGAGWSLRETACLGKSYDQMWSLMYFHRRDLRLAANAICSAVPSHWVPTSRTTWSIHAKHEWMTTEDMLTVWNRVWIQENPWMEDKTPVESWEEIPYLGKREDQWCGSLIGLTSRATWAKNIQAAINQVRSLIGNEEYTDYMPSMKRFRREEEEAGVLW

COc1ccccc1CCC(=O)OCC(=O)Nc1c(Br)cc(C)cc1Br
EC50 [1]: > 260 µM (inactive)

Oc1ccc(N=Nc2ccccc2-c2nn[nH]n2)c(O)c1
IC50 [2]: > 100 µM (active) | EC50 [3]: > 300 µM (not active) | EC50 [4]: > 300 µM (not active)

O=C(COC(=O)c1ccccc1C(=O)c1ccccc1)Nc1cccc([N+](=O)[O-])c1
EC50 [1]: > 260 µM (inactive)

C=CCn1c(COc2ccc(F)cc2)nnc1SCC(=O)Nc1cccc(S(N)(=O)=O)c1
EC50 [5]: > 160 µM (inactive)

CCOC(=O)c1c(-c2ccc(C)o2)csc1NC(=O)CSc1nncs1
EC50 [1]: > 260 µM (inactive)

COc1cccc(NC(=O)c2cc3c(=O)n4ccccc4nc3n(CC(C)C)c2=N)c1
AC50 [6]: 7.02 µM (active)

Cc1ccc(/C=C(\C#N)c2nn(-c3ccccc3)c(N)c2C#N)cc1
EC50 [7]: > 350 µM (not active) | EC50 [8]: > 350 µM (not active)

COc1cc(NS(=O)(=O)c2ccc(Br)cc2)c(OC)cc1NC(=O)c1ccco1
IC50 [9]: > 100 µM (inactive)

Cc1c(Cl)c(C(=O)NC2CCCC2)nn1C
EC50 [1]: > 260 µM (inactive)

COc1ccccc1CN1CC(C(=O)NCCc2ncccc2C)CCC1=O (stereo unspecified)
EC50 [1]: > 260 µM (inactive)

O=C(O)/C(=C\c1ccc(Cl)c([N+](=O)[O-])c1)c1ccc(S(=O)(=O)N2CCCCC2)s1
IC50 [2]: 81.4 µM (active)

Cc1cc(-c2nnc(CCC(=O)N(C)Cc3cccc4ccccc34)o2)no1
EC50 [1]: > 260 µM (inactive)

Cc1nc2ccccc2cc1OCc1ccc(Cl)cc1
IC50 [9]: 57.9 µM (inactive)

COc1cc(-c2nnc3sc(Cc4ccc(Cl)cc4)nn23)cc(OC)c1OC
EC50 [1]: > 260 µM (inactive)

COc1ccc(-c2csc(NC(=O)c3ccccc3Br)c2C(=O)O)cc1
IC50 [2]: 74.4 µM (active)

CCCN(CC(=O)Nc1ccc(Cl)cc1Cl)C(=O)/C=C/c1ccco1
EC50 [1]: 17.6 µM (active)

O=C(O)c1cccc(Nc2nc3ccccc3nc2NS(=O)(=O)c2cccs2)c1
IC50 [2]: 66.3 µM (active)

O=S(=O)([O-])CCC[n+]1c(SCCCS(=O)(=O)O)sc2ccc(Cl)cc21
IC50 [2]: > 100 µM (active)

C=CCn1c(N2CCCCCC2)nc2c1c(=O)[nH]c(=O)n2C
EC50 [7]: > 350 µM (not active) | EC50 [8]: > 350 µM (not active)

COCCNC(=O)C(c1ccc(C)o1)N(Cc1ccc(OC)cc1)C(=O)Cn1nnc2ccccc21 (stereo unspecified)
IC50 [9]: > 100 µM (inactive)

Clc1ccc(SCc2cc(-c3ccccc3)on2)cc1
IC50 [9]: > 100 µM (inactive)

CCn1nc(C(=O)OCC(=O)NC(C)C)c2ccccc2c1=O
EC50 [7]: > 350 µM (not active) | EC50 [8]: > 350 µM (not active) | EC50 [10]: > 195 µM (not active)

Cc1cc(C)c2c(N)c(C(=O)Nc3ccccc3F)sc2n1
EC50 [7]: > 350 µM (not active) | EC50 [8]: 131 µM (active)

COc1ccc(C2(c3ccc(OC)cc3)NC(=O)N(CC(=O)N(C)c3ccccc3)C2=O)cc1
EC50 [1]: > 260 µM (inactive)

Brc1ccc(CSc2nnc(-c3ccco3)o2)cc1
IC50 [9]: 8.76 µM (active)

CN1C(=O)C2(c3ccccc31)N(C)CC(c1ccccn1)C21SC(=S)N(Cc2ccco2)C1=O (stereo unspecified)
EC50 [1]: > 260 µM (inactive)

CC1(C)C(=Cc2ccccc2)C(=O)c2ccccc21
IC50 [9]: 18 µM (active)

OC(c1ccccc1)C(O)C(c1ccccc1)N1CCCCC1 (stereo unspecified)
AC50 [11]: 23.1 µM (active)

CCCS(=O)(=O)NC(=O)C1(C)CCN(C(=O)c2cccc(C)c2C)C1 (stereo unspecified)
IC50 [9]: > 100 µM (inactive)

O=C(N/N=C/c1cc([N+](=O)[O-])ccc1O)c1cccc2cc[nH]c12
EC50 [7]: 311 µM (active) | EC50 [8]: 24.6 µM (active) | EC50 [12]: > 120 µM (not active) | EC50 [13]: 14.8 µM (active) | EC50 [14]: 10.3 µM (active) | AC50 [15]: 2.02 µM (active)

COc1cc(NS(=O)(=O)c2ccc(C)cc2)c2c(c1N)C(=O)c1ccccc1C2=O
IC50 [9]: > 100 µM (inactive)

O=C(COc1ccc(Cl)cc1Cl)N/N=C/CCc1ccccc1
AC50 [16]: 3.16 µM (inconclusive) | EC50 [7]: > 350 µM (not active) | EC50 [8]: > 350 µM (not active)
